Laboratory results reported in patent US6346539B1, “Treatment of skin conditions” (BTG International Limited, priority 1998, dated 2002).
Where two headings read alike, the source gives them in different places.

How the values were obtained:
mouse melan-a cells = assay: Melanocyte proliferant activity of piperine derivatives, SRB assay, 4 days, 10% FBS; assay type: cell-based; settings: for Relative activity to piperine: (A-100) compound/(A-100) piperine; for Active at 10 μM?: overall summary
Description: The plates were incubated at 37° C. in a 10% CO2, 90% air humidified atmosphere for the stated length of time. At the end of the incubation, an SRB assay was performed. Briefly, cells attached to the bottom of the plate were fixed by addition of cold trichloroacetic acid (TCA, 4° C., Aldrich, Dorset, UK) on the top of the growth medium (final TCA 20% w/v). The plate was placed at 4° C. for 1 hour before being gently washed five times with tap water. It was allowed to dry in air, or aided with a hair dryer to speed up the drying process, then 50 μl of 4% w/v SRB dissolved in 1% acetic acid in water was added to each well for 30 min. At the end of the staining period, unbound SRB was removed by washing 4 times with 1% acetic acid. The plate was air dried again, and 150 μl of 10 mM aqueous Tris base (Sigma-Aldrich Co. Ltd, Irvine, UK) was added into each well to solubilize the cell-bound dye.
Various piperine derivatives of formula (1) were synthesised and tested for melanocyte (mouse melan-a) proliferant activity in-vitro. Cells we re incubated with the test compound for 4 days, as previously for the mouse cells but with 10% FBS, after which the sulphorhodamine-B (SRB) assay was performed to determnine cell number SRB uptake was measured as optical density at 550 nm. The control assay was carried out on cells incubated without test compound. There were 2 or 3 series of experiments, each of which consisted of six replcate experiments.
Percentage cell growth was obtained with a given compound calculated as (optical density in the presence of the compound/control optical density)×100.
Melan-a cell proliferant activity for tested compounds was compared with that obtained with piperine. […] All figures are given with Standard Error of the Mean.

melan-a cells = assay: Dendricity of melan-a cells by observation under microscope; assay type: cell-based, mouse; design: key: +++: highly dendritic; ++: moderately dendritic; +: weakly dendritic; −: no effect
Text: Effect on dendricity of melan-a cells by the test compounds was by observation under microscope. Dendricity is relevant to vitiligo since normal skin melanocytes have dendrites, but in vitiligo the melanocytes seem to lose these before they disappear from the patches.

[1] = Mus musculus, Melan-a, 96 h, read-out: growth of melan-a cells as % of control, dose experiment
[2] = Mus musculus, Melan-a, 96 h, 10 μM, read-out: growth of melan-a cells as % of control, dose experiment
[3] = Mus musculus, Melan-a, 96 h, single concentration (10 μM), melan-a, ± SEM, read-out: Percentage cell growth (Repeated experiments)
[4] = single concentration (10 μM), melan-a

Structure (SMILES) | Relative activity to piperine (mouse melan-a cells; 10 μM) | activity at 1 µM (mouse melan-a cells; [1]) [%] | activity at 10 µM (mouse melan-a cells; [2]) [%] | activity at 50 µM (mouse melan-a cells; [1]) [%] | activity at 100 µM (mouse melan-a cells; [1]) [%] | activity at 10 µM (mouse melan-a cells; [3]) [%] | Active at 10 μM? (mouse melan-a cells; melan-a) | Stimulant activity (mouse melan-a cells; [4]) | Dentricity, dose experiment (melan-a cells; 1 μM) | Dentricity, dose experiment (melan-a cells; 10 μM) | Dentricity, dose experiment (melan-a cells; 50 μM) | Dentricity, dose experiment (melan-a cells; 100 μM) | Dendricity (melan-a cells; Table 7, 10 μM) | Dendricity (melan-a cells; Table 9, 10 μM) | activity at 25 µM (mouse melan-a cells; Mus musculus, Melan-a, 96 h, 25 μM, read-out: growth of melan-a cells as % of control, dose experiment) [%] | Dendricity (melan-a cells; Table 8, 10 μM)
CCCCNC(=O)/C=C/C=C/c1ccc2c(c1)OCO2 [RV-A11, 5-E,E-piperinoylbutylamine] | 0.66 | 189 ± 6 | 264 ± 21 | 158 ± 20 | 84 ± 6 | 264 ± 21 | Yes | Positive | +++ | +++ | ++ | + | +++ |  |  | 
COC(=O)/C=C/C=C/c1ccc2c(c1)OCO2 [RV-AB1, 5-E,E-piperinic Acid Methyl Ester] |  | 125 ± 13 | 147 ± 16 | 187 ± 12 | 171 ± 8 |  | Yes | Positive | − | + | ++ | ++ |  | ++ |  | 
CCOC(=O)/C=C/C=C/c1ccc2c(c1)OCO2 [RV-AB2, 5-E,E-piperinic Acid Ethyl Ester] |  |  |  |  |  | 29 ± 9 | No^c | Positive |  |  |  |  |  | Toxic |  | 
CC(C)OC(=O)/C=C/C=C/c1ccc2c(c1)OCO2 [RV-AB4, 5-E,E-piperinic Acid Isopropyl Ester] | 0.8 | 175 ± 6 | 224 ± 12 | 148 ± 19 | 90 ± 7 | 224 ± 12 | Yes | Positive | ++ | ++ | ++ | + |  | ++ |  | 
CCCOC(=O)/C=C/C=C/c1ccc2c(c1)OCO2 [RV-AB5, 5-E,E-piperinic Acid Propyl Ester] | 0.95 | 120 ± 21 | 151 ± 19 | 163 ± 8 | 123 ± 8 | 166 ± 35 | Yes | Positive | − | ++ | ++ | + |  | ++ |  | 
CCCCOC(=O)/C=C/C=C/c1ccc2c(c1)OCO2 [RV-AB6, 5-E,E-piperinic Acid Butyl Ester] | 0.59 | 103 ± 5 | 148 ± 18 | 190 ± 11 | 128 ± 17 | 148 ± 18 | Yes | Positive | − | + | ++ | + |  | + |  | 
O=C(/C=C/c1ccc2c(c1)OCO2)N1CCCCC1 [RV-B01, 1-(3-trans-benzo-1,3-dioxol-5-ylacryloyl)piperidine] |  | 111 ± 6 | 147 ± 7 | 187 ± 8 |  |  | Yes | Positive |  |  |  |  |  |  | 187 ± 18 | ++
O=C(/C=C/c1ccc2c(c1)OCO2)N1CCCC1 [RV-B02, 1-(3-trans-benzo-1,3-dioxol-5-ylacryloyl)pyrrolidine] |  |  |  |  |  | 140 ± 14 | No^b | Non- significant |  |  |  |  |  |  |  | +
COC(=O)/C=C/c1ccc2c(c1)OCO2 [RV-BB1, 3-trans-benzo-1,3-dioxol-5-ylacrylic acid methyl ester] |  |  |  |  |  |  | No^b | Non- significant |  |  |  |  |  |  |  | 
